ChEMBL document CHEMBL4382259, “Synthesis of novel guttiferone E and xanthochymol derivatives with cytotoxicities by inducing cell apoptosis and arresting the cell cycle phase” (Eur J Med Chem, 2019)

Tests used:
Assay type in all cases: functional, cell-based
HeLa = assay: Antiproliferative activity against human HeLa cells after 72 hrs by MTT assay
K562 = assay: Antiproliferative activity against human K562 cells after 72 hrs by MTT assay; settings: K562, 72 h
MCF7 = assay: Antiproliferative activity against human MCF7 cells after 72 hrs by MTT assay; settings: MCF7, 72 h
A549 = assay: Antiproliferative activity against human A549 cells after 72 hrs by MTT assay; settings: A549, 72 h
HEL = assay: Antiproliferative activity against HEL cells after 72 hrs by MTT assay; settings: Homo sapiens

| Structure (SMILES) | IC50 (HeLa) [µM] | IC50 (K562) [µM] | IC50 (MCF7) [µM] | IC50 (A549) [µM] | IC50 (HEL) [µM] |
| --- | --- | --- | --- | --- | --- |
| CCN(CC)CCCCCOc1ccc(C(=O)C2=C3OC(C)(C)[C@@H](CC=C(C)C)C[C@@]34C[C@@H](CC=C(C)C)C(C)(C)[C@@](CC=C(C)C)(C2=O)C4=O)cc1OCCCCCN(CC)CC | 11.3 | > 20 | 7.56 | 17.2 | > 20 |
| CC(C)=CC[C@H]1C[C@]23C[C@@H](CC=C(C)C)C(C)(C)[C@H]4CCC(C)(C)O[C@]42OC(=O)C(C(=O)c2ccc(OC(=O)c4ccc(Br)cc4)c(OC(=O)c4ccc(Br)cc4)c2)=C3OC1(C)C | > 20 | > 20 | > 20 | > 20 | > 20 |
| CC(C)=CC[C@H]1C[C@@]23C[C@@H](CC=C(C)C)C(C)(C)[C@@](CC=C(C)C)(C(=O)C(C(=O)c4ccc(OCc5ccccc5)c(OCc5ccccc5)c4)=C2OC1(C)C)C3=O | 10.6 | > 20 | 15.1 | > 20 | > 20 |
| CC(C)=CCOc1ccc(C(=O)C2=C3OC(C)(C)[C@@H](CC=C(C)C)C[C@@]34C[C@@H](CC=C(C)C)C(C)(C)[C@@](CC=C(C)C)(C2=O)C4=O)cc1O | 12.2 | > 20 | 18.6 | > 20 | > 20 |
| C=CC(=O)Oc1ccc(C(=O)C2=C3OC(C)(C)[C@@H](CC=C(C)C)C[C@@]34C[C@@H](CC=C(C)C)C(C)(C)[C@@](CC=C(C)C)(C2=O)C4=O)cc1OC(=O)C=C | 10.1 | > 20 | 4 | 13.7 | > 20 |
| COc1ccc(C(=O)Oc2ccc(C(=O)C3=C4OC(C)(C)[C@@H](CC=C(C)C)C[C@@]45C[C@@H](CC=C(C)C)C(C)(C)[C@H]4CCC(C)(C)O[C@]45OC3=O)cc2OC(=O)c2ccc(OC)cc2)cc1 | > 20 | > 20 | > 20 | > 20 | > 20 |
| C=CCOc1ccc(C(=O)C2=C3OC(C)(C)[C@@H](CC=C(C)C)C[C@@]34C[C@@H](CC=C(C)C)C(C)(C)[C@@](CC=C(C)C)(C2=O)C4=O)cc1OCC=C | 15.8 | > 20 | > 20 | > 20 | > 20 |
| CC(C)=CC[C@H]1C[C@@]23C[C@@H](CC=C(C)C)C(C)(C)[C@@](CC=C(C)C)(C(=O)C(C(=O)c4ccc(O)c(O)c4)=C2OC1(C)C)C3=O [CAMBOGIN] | 16.5 | 14.1 | 10.2 | 19.2 | 9.24 |
| C=CCOc1ccc(C(=O)C2=C3OC(C)(C)[C@@H](CC=C(C)C)C[C@@]34C[C@@H](CC=C(C)C)C(C)(C)[C@@](CC=C(C)C)(C2=O)C4=O)cc1O | 15 | > 20 | 11.5 | > 20 | > 20 |
| CC(C)=CC[C@H]1C[C@@]23C[C@@H](CC=C(C)C)C(C)(C)[C@@](CC=C(C)C)(C(=O)C(C(=O)c4ccc(OC(=O)c5ccccc5)c(OC(=O)c5ccccc5)c4)=C2OC1(C)C)C3=O | > 20 | > 20 | > 20 | > 20 | > 20 |
| C#CCOc1ccc(C(=O)C2=C3OC(C)(C)[C@@H](CC=C(C)C)C[C@@]34C[C@@H](CC=C(C)C)C(C)(C)[C@@](CC=C(C)C)(C2=O)C4=O)cc1O | > 20 | > 20 | > 20 | > 20 | > 20 |
| CC(C)=CC[C@H]1C[C@@]23C[C@@H](CC=C(C)C)C(C)(C)[C@@](CC=C(C)C)(C(=O)C(C(=O)c4ccc(O)c(OC(=O)c5ccccc5)c4)=C2OC1(C)C)C3=O | 6.17 | 13.8 | 9.99 | 9.33 | 9.51 |
| CC(C)=CC[C@H]1C[C@@]23C[C@@H](CC=C(C)C)C(C)(C)[C@@](CC=C(C)C)(C(=O)C(C(=O)c4ccc(O)c(OC(=O)c5cccs5)c4)=C2OC1(C)C)C3=O | 10.8 | 13.9 | > 20 | > 20 | 9.56 |
| CC(C)=CC[C@H]1C[C@@]23C[C@@H](CC=C(C)C)C(C)(C)[C@@](CC=C(C)C)(C(=O)C(C(=O)c4ccc(OC(=O)CCCCCBr)c(OC(=O)CCCCCBr)c4)=C2OC1(C)C)C3=O | > 20 | > 20 | > 20 | > 20 | > 20 |
| CCC(=O)Oc1ccc(C(=O)C2=C3OC(C)(C)[C@@H](CC=C(C)C)C[C@@]34C[C@@H](CC=C(C)C)C(C)(C)[C@H]3CCC(C)(C)O[C@]34OC2=O)cc1OC(=O)CC | 15.4 | > 20 | > 20 | > 20 | 9.52 |
| COc1cccc2c1C(=O)c1c(O)c3c(c(O)c1C2=O)C[C@@](O)(C(=O)CO)C[C@@H]3O[C@H]1C[C@H](N)[C@H](O)[C@H](C)O1 [DOXORUBICIN] | 1.69 | 0.65 | 1.74 | 3.16 | 0.42 |
| CC(C)=CC[C@H]1C[C@@]23C[C@@H](CC=C(C)C)C(C)(C)[C@@](CC=C(C)C)(C(=O)C(C(=O)c4ccc(OCCCCCN5CCOCC5)c(O)c4)=C2OC1(C)C)C3=O | > 20 | > 20 | 16 | > 20 | > 20 |

| Structure (SMILES) | IC50 (HeLa) [µM] | IC50 (K562) [µM] | IC50 (MCF7) [µM] | IC50 (A549) [µM] | IC50 (HEL) [µM] |
| --- | --- | --- | --- | --- | --- |
| CC(C)=CC[C@H]1C[C@@]23C[C@@H](CC=C(C)C)C(C)(C)[C@@](CC=C(C)C)(C(=O)C(C(=O)c4ccc(O)c(OS(=O)(=O)c5ccc(C)cc5)c4)=C2OC1(C)C)C3=O | 18.4 | > 20 | 15.8 | > 20 | 4.66 |
| CC(C)=CC[C@H]1C[C@@]23C[C@@H](CC=C(C)C)C(C)(C)[C@@](CC=C(C)C)(C(=O)C(C(=O)c4ccc(OCCCCCN5CCOCC5)c(OCCCCCN5CCOCC5)c4)=C2OC1(C)C)C3=O | 5 | > 20 | > 20 | > 20 | > 20 |
| C=C(C)[C@@H](CC=C(C)C)C[C@@]12C[C@@H](CC=C(C)C)C(C)(C)[C@@](CC=C(C)C)(C(=O)c3c1oc1cc(O)c(O)cc1c3=O)C2=O | > 20 | 10.4 | > 20 | > 20 | 4.5 |
| CCCCCCCC(=O)Oc1ccc(C(=O)C2=C3OC(C)(C)[C@@H](CC=C(C)C)C[C@@]34C[C@@H](CC=C(C)C)C(C)(C)[C@H]3CCC(C)(C)O[C@]34OC2=O)cc1OC(=O)CCCCCCC | > 20 | > 20 | > 20 | > 20 | > 20 |
| CCCCCCCC(=O)Oc1cc(C(=O)C2=C3OC(C)(C)[C@@H](CC=C(C)C)C[C@@]34C[C@@H](CC=C(C)C)C(C)(C)[C@H]3CCC(C)(C)O[C@]34OC2=O)ccc1O | > 20 | 15.3 | > 20 | > 20 | 18.7 |
| CCC(=O)Oc1cc(C(=O)C2=C3OC(C)(C)[C@@H](CC=C(C)C)C[C@@]34C[C@@H](CC=C(C)C)C(C)(C)[C@H]3CCC(C)(C)O[C@]34OC2=O)ccc1O | > 20 | 12.1 | > 20 |  | 9.71 |
| CC(C)=CC[C@H]1C[C@@]23C[C@@H](CC=C(C)C)C(C)(C)[C@@](CC=C(C)C)(C(=O)C(C(=O)c4ccc(OCCCCCBr)c(O)c4)=C2OC1(C)C)C3=O | 15.5 | > 20 | 9.29 | > 20 | > 20 |
| CC(C)=CC[C@H]1C[C@@]23C[C@@H](CC=C(C)C)C(C)(C)[C@@](CC=C(C)C)(C(=O)C(C(=O)c4ccc(OS(=O)(=O)c5ccc(C)cc5)c(OS(=O)(=O)c5ccc(C)cc5)c4)=C2OC1(C)C)C3=O | 6.25 | > 20 | 3.15 | 9.53 | > 20 |
| CC(C)=CC[C@H]1C[C@@]23C[C@@H](CC=C(C)C)C(C)(C)[C@@](CC=C(C)C)(C(=O)C(C(=O)c4ccc(OCCCCCBr)c(OCCCCCBr)c4)=C2OC1(C)C)C3=O | > 20 | > 20 | > 20 | > 20 | > 20 |
| C#CCOc1ccc(C(=O)C2=C3OC(C)(C)[C@@H](CC=C(C)C)C[C@@]34C[C@@H](CC=C(C)C)C(C)(C)[C@@](CC=C(C)C)(C2=O)C4=O)cc1OCC#C | > 20 | 17.6 | > 20 | > 20 | 8.89 |
| COc1ccc(C(=O)C2=C3OC(C)(C)[C@@H](CC=C(C)C)C[C@@]34C[C@@H](CC=C(C)C)C(C)(C)[C@@](CC=C(C)C)(C2=O)C4=O)cc1O | 10.9 | 14.5 | > 20 | > 20 | 13.4 |
| CCCCCC(=O)Oc1cc(C(=O)C2=C3OC(C)(C)[C@@H](CC=C(C)C)C[C@@]34C[C@@H](CC=C(C)C)C(C)(C)[C@H]3CCC(C)(C)O[C@]34OC2=O)ccc1O | > 20 | 13.5 | 15.5 | 19.5 | 9.53 |
| CC(C)=CC[C@H]1C[C@@]23C[C@@H](CC=C(C)C)C(C)(C)[C@@](CC=C(C)C)(C(=O)C(C(=O)c4ccc(O)c(OC(=O)CCCCCBr)c4)=C2OC1(C)C)C3=O | > 20 | 14.5 | > 20 | > 20 | 9.62 |
| CC(C)=CCOc1ccc(C(=O)C2=C3OC(C)(C)[C@@H](CC=C(C)C)C[C@@]34C[C@@H](CC=C(C)C)C(C)(C)[C@@](CC=C(C)C)(C2=O)C4=O)cc1OCC=C(C)C | > 20 | > 20 | > 20 | 17.2 | > 20 |
| CCCCCC(=O)Oc1ccc(C(=O)C2=C3OC(C)(C)[C@@H](CC=C(C)C)C[C@@]34C[C@@H](CC=C(C)C)C(C)(C)[C@H]3CCC(C)(C)O[C@]34OC2=O)cc1OC(=O)CCCCC | 15.4 | > 20 | 16.6 | 19.2 | 19.9 |
| C=CC(=O)Oc1cc(C(=O)C2=C3OC(C)(C)[C@@H](CC=C(C)C)C[C@@]34C[C@@H](CC=C(C)C)C(C)(C)[C@@](CC=C(C)C)(C2=O)C4=O)ccc1O | 19.4 | 10.7 | > 20 | > 20 | 4.66 |
